In ChEMBL document CHEMBL3994674, “Toward Resolving the Resveratrol Conundrum: Synthesis and in Vivo Pharmacokinetic Evaluation of BCP-Resveratrol” (ACS Med Chem Lett, 2017):
Values after ≈ are worked out from the molar mass of the structure shown.

Tests used:
MIA PaCa-2 [1] = assay: Cytotoxicity against human MIAPaCa2 cells assessed as growth inhibition at 30 uM after 72 hrs by CellTitre-Glo luminescent assay relative to control; assay type: functional; details: MIA PaCa-2, 72 h, read-out: GI
[2] = Drug metabolism in human hepatocytes assessed as resveratrol-sulfate formation at 5 uM by LC-MS/MS analysis; assay type: ADME, cell-based, Hepatocyte
SU-DHL10 [3] = assay: Cytotoxicity against human SU-DHL10 cells assessed as growth inhibition at 30 uM after 72 hrs by CellTitre-Glo luminescent assay relative to control; assay type: functional; details: SU-DHL10, 72 h, read-out: GI
[4] = Drug metabolism in human hepatocytes assessed as resveratrol-glucuronide formation at 5 uM by LC-MS/MS analysis; assay type: ADME, cell-based, Hepatocyte
[5] = Cmax in CD rat at 50 mg/kg/day, po administered via gavage every 24 hrs for 14 consecutive days measured on day 14 post dose by HPLC-MS analysis; assay type: ADME, organism-based; parameters: dose 50 mg/kg/day, route oral; details: in vivo
[6] = Apparent intrinsic clearance in rat hepatocytes assessed per million cells at 5 uM by LC-MS/MS analysis; assay type: ADME, cell-based, Hepatocyte
[7] = Tmax in Wistar rat at 20 mg/kg, po by HPLC-MS analysis; assay type: ADME, organism-based; details: in vivo
MDA-MB-231 [8] = assay: Cytotoxicity against human MDA-MB-231 cells assessed as growth inhibition at 30 uM after 72 hrs by CellTitre-Glo luminescent assay relative to control; assay type: functional; details: MDA-MB-231, 72 h, read-out: GI
[9] = Half life in rat hepatocytes at 5 uM by LC-MS/MS analysis; assay type: ADME, cell-based, Hepatocyte
[10] = AUC (0 to last) in Wistar rat at 20 mg/kg, po by HPLC-MS analysis; assay type: ADME, organism-based; parameters: dose 20 mg/kg, time 0 - last, route oral; details: in vivo
[11] = Cmax in CD rat at 50 mg/kg/day, po administered via gavage every 24 hrs for 14 consecutive days measured on day 1 post dose by HPLC-MS analysis; assay type: ADME, organism-based; parameters: dose 50 mg/kg/day, route oral; details: in vivo
[12] = Apparent intrinsic clearance in human hepatocytes assessed per million cells at 5 uM by LC-MS/MS analysis; assay type: ADME, cell-based, Hepatocyte
[13] = Apparent clearance in Wistar rat at 20 mg/kg, po by HPLC-MS analysis; assay type: ADME, organism-based; details: in vivo
[14] = Octanol/phosphate buffer partition co-efficient, log D of the compound at 75 uM at pH 7.4 after 2 hrs by LC-Ms/MS based shake-flask method; assay type: physicochemical
[15] = Thermodynamic solubility in pH 7.4 PBS at 10 mg/ml after 1 hr by LC-Ms/MS based shake flask method; assay type: physicochemical; details: read-out: Therm_solubility
[16] = Half life in human hepatocytes at 5 uM by LC-MS/MS analysis; assay type: ADME, cell-based, Hepatocyte
[17] = Half life in Wistar rat at 20 mg/kg, po by HPLC-MS analysis; assay type: ADME, organism-based; details: in vivo
[18] = Cmax in Wistar rat at 20 mg/kg, po by HPLC-MS analysis; assay type: ADME, organism-based; parameters: dose 20 mg/kg, route oral; details: in vivo
[19] = Drug level in human hepatocytes treated with resveratrol at 5 uM by LC-MS/MS analysis; assay type: ADME, cell-based, Hepatocyte
MIA PaCa-2 [20] = assay: Cytotoxicity against human MIAPaCa2 cells assessed as growth inhibition after 72 hrs by CellTitre-Glo luminescent assay; assay type: functional; details: MIA PaCa-2, 72 h
MDA-MB-231 [21] = assay: Cytotoxicity against human MDA-MB-231 cells assessed as growth inhibition after 72 hrs by CellTitre-Glo luminescent assay; assay type: functional; details: MDA-MB-231, 72 h
SU-DHL10 [22] = assay: Cytotoxicity against human SU-DHL10 cells assessed as growth inhibition after 72 hrs by CellTitre-Glo luminescent assay; assay type: functional; details: SU-DHL10, 72 h
[23] = Cmax in Sprague-Dawley rat at 20 mg/kg, po administered as single dose via gavage after 5 mins by HPLC-MS analysis; assay type: ADME, organism-based; parameters: dose 20 mg/kg, route oral; details: in vivo
[24] = Half life in Sprague-Dawley rat at 20 mg/kg, po administered as single dose via gavage by HPLC-MS analysis; assay type: ADME, organism-based; details: in vivo
[25] = Plasma concentration in Sprague-Dawley rat at 20 mg/kg, po administered as single dose via gavage up to 4 hrs by HPLC-MS analysis; assay type: ADME, organism-based
[26] = Apparent clearance in Sprague-Dawley rat at 20 mg/kg, po administered as single dose via gavage by HPLC-MS analysis; assay type: ADME, organism-based; details: in vivo
[27] = AUC (0 to last) in Sprague-Dawley rat at 20 mg/kg, po administered as single dose via gavage after 4 hrs by HPLC-MS analysis; assay type: ADME, organism-based; parameters: dose 20 mg/kg, route oral, time 0 - last; details: in vivo
[28] = Tmax in Sprague-Dawley rat at 20 mg/kg, po administered as single dose via gavage by HPLC-MS analysis; assay type: ADME, organism-based; details: in vivo

Row | CLH(app) [6] | half-life at 5 µM [9] | CLH(app) [12] | logD at 2 h, 75 µM [14] | solubility thermodynamic at 1 h [15] | half-life at 5 µM [16] | SMILES | inhibition of growth at 30 µM (MIA PaCa-2 [1]) | inhibition of growth at 30 µM (SU-DHL10 [3]) | inhibition of growth at 30 µM (MDA-MB-231 [8]) | Drug metabolism [19] | other results
1 | > 184.8 µL/min | < 7.5 min | 29.9 µL/min | 2.9 | 19 µg/mL (≈ 83.2 µM) | 23.2 min | Oc1ccc(/C=C/c2cc(O)cc(O)c2)cc1 [RESVERATROL] | 30% | 46% | 20% |  | Drug metabolism [2]: Metabolite_Detected; Drug metabolism [4]: Metabolite_Detected; Cmax [5]: 176 ng/mL; Tmax [7]: 4.98 min; AUC(0-t) [10]: 47.5 ng·h/mL; Cmax [11]: 76.7 ng/mL; CL/F [13]: 409 L/h/kg; half-life [17]: 11.4 min; Cmax [18]: 273 ng/mL
2 |  |  |  |  |  |  | O=S(=O)(O)Oc1ccc(/C=C/c2cc(O)cc(O)c2)cc1 |  |  |  | Metabolite_Detected | 
3 |  |  |  |  |  |  | COc1ccc(C[C@H](N)C(=O)N[C@H]2[C@@H](O)[C@H](n3cnc4c(N(C)C)ncnc43)O[C@@H]2CO)cc1 [PUROMYCIN] |  |  |  |  | CC50 (MIA PaCa-2 [20]): 200 nM; CC50 (MDA-MB-231 [21]): 480 nM; CC50 (SU-DHL10 [22]): 110 nM
4 | 57.4 µL/min | 24.2 min | 7.7 µL/min | 1.9 | 619 µg/mL (≈ 2840 µM) | 90.4 min | Oc1cc(O)cc(/C=C/C23CC(O)(C2)C3)c1 | 30% | 41% | 22% |  | Cmax [23]: 942 ng/mL; half-life [24]: 156 min; concentration at 4 h [25]: 85 ng/mL; CL/F [26]: 21.8 L/h/kg; AUC(0-t) at 4 h [27]: 587 ng·h/mL; Tmax [28]: 4.02 min
5 |  |  |  |  |  |  | O=C(O)[C@H]1O[C@@H](Oc2ccc(/C=C/c3cc(O)cc(O)c3)cc2)[C@H](O)[C@@H](O)[C@@H]1O |  |  |  | Metabolite_Detected | 
